{"source": "patent US20170240522A1", "about": "“BENZOTHIOPHENE, BENZYLOXYBENZYLIDENE AND INDOLINE DERIVATIVES USEFUL FOR THE TREATMENT OF TUBERCULOSIS” (priority 2014, published 2017)", "key": {"[1]": {"system": "MRC-5 lung fibroblasts", "test": "Fibroblast survival assay (FSA)", "assay_type": "cell-based", "conditions": "Homo sapiens, MRC5; read-out: IC50 of protection of fibroblasts"}, "[2]": {"system": "several other mycobacteria and non-mycobacterial pathogens", "test": "REMA assay of non-Mtb strains", "assay_type": "cell-based"}, "[3]": {"system": "Ag85 complex proteins", "assay_type": "cell-based, Mycobacterium tuberculosis", "conditions": "5 μM"}, "[4]": {"system": "Mtb culture filtrate proteins", "test": "Secretome analysis of culture filtrate (LC/MS-MS)", "assay_type": "cell-based, Mycobacterium tuberculosis", "conditions": "5 μM", "description": "For the secretome analysis 10 μg of protein was reconstituted in 200 μl of 4 M Urea, 10% acetonitrile and buffered with Tris-HCl pH 8.5 to a final concentration of 30 mM. Proteins were reduced in 10 mM dithioerythritol (DTE) at 37° C. for 60 min. and then alkylated in 40 mM iodoacetamide at 37° C. for 45 min. Reactions were quenched by addition of DTE to a final concentration of 10 mM. First, protein digestion was performed using Lys-C (1:50 enzyme:protein) for 2 hours at 37° C. The lysates were then diluted 5-fold and a second digestion was performed overnight at 37° C. using mass spectrometry grade trypsin gold (1:50 enzyme:protein) and 10 mM CaCl2. Reactions were stopped by addition of 8 μl of pure formic acid and peptides were concentrated by vacuum centrifugation to a final volume of 70 μl.\n• After digestions, samples were dimethyl-labeled as described previously (Boersema et al., 2009). […]\n• Each SAX fraction was resuspended in 2% acetonitrile, 0.1% FA and loaded on a capillary pre-column (Magic AQ C18; 3 μm by 200 Å; 2 cm×100 μm ID). […] Relative quantification within different conditions was obtained calculating the significance B values for each of the identified proteins using Perseus (Cox et al., 2009)."}, "[5]": {"system": "mycobacterial outer membrane permeability", "test": "Ethidium bromide (EtBr) uptake assay", "assay_type": "cell-based, Mycobacterium tuberculosis", "conditions": "10 μM", "description": "(§1) Bacteria were grown for 24 hours in the presence of test compounds. The BacTiter-Glo microbial cell viability reagent (Promega) was used for the quantification of ATP according to the recommendations of the manufacturer. For EtBr uptake assays, bacteria were washed with PBS containing 0.05% Tween 80, OD600 was adjusted to 0.4 and 100 μl were pipetted into black 96 well plates. EtBr was added (4 μM final concentration) and fluorescence was read every 2 min. at 545/600 nm. Unpaired Student's T-tests were used for statistical analyses.\nTo investigate whether BBH7 alters mycobacterial outer membrane permeability, which might explain the transcriptomic pattern associated with metal-ion toxicity, the Applicant performed ethidium bromide (EtBr) uptake assays after treatment with the compounds of interest. These assays identify altered outer membrane permeability by an increase of fluorescence after binding of EtBr to bacterial nucleic acids. […] This was not observed with BTP15."}, "[6]": {"system": "ATP-levels of Mtb", "test": "Quantification of intracellular ATP levels", "assay_type": "cell-based, Mycobacterium tuberculosis", "conditions": "10 μM, 24 hours", "description": "as §1"}, "[7]": {"system": "Mtb-GFP inside activated THP-1 cells", "assay_type": "cell-based, Mycobacterium tuberculosis", "conditions": "activated THP-1, 10 μM"}}, "data": [{"smiles": "CSC(=S)N/N=C(\\C)c1ccc(OCc2ccc(F)cc2F)cc1", "note": "[BBH7, N′-{1-[4-(2,4-Difluoro-benzyloxy)-phenyl]ethylidene}-hydrazinecarbodithioic acid methyl ester]", "values": [{"measurement": "IC50", "setting": "[1]", "value": 2400, "unit": "nM"}, {"measurement": "MIC99", "setting": "[2]", "value": "> 100", "unit": "µM"}, {"measurement": "Ag85 secretion", "setting": "[3]", "value": "fully blocked"}, {"measurement": "reduction of total culture filtrate protein", "setting": "[4]", "value": 50, "unit": "%"}, {"measurement": "abundance of ESX-5 substrates (EsxN/EsxM, PE25, PPE41) in culture filtrate", "setting": "[4]; LC-MS/MS", "value": "significantly reduced in abundance"}, {"measurement": "EtBr accumulation and fluorescence", "setting": "[5]", "value": "increases EtBr accumulation and fluorescence"}, {"measurement": "mycobacterial ATP levels", "setting": "[6]", "value": "not found to be reduced"}, {"measurement": "intracellular bacterial load", "setting": "[7]", "value": "greatly reduced the intracellular bacterial load"}]}]}
